In US10179782B2, “Substituted sulfonamide compounds” (Genentech, Inc., priority 2016, dated 2019) one finds IC50 data, which are given here for 19 compounds.

Where two headings read alike, the source gives them in different places.

This test has as its target T1, human TRPA1 (Homo sapiens, UniProt O75762).
T1 construct: expressed in transfected cells; host or cells: CHO cells
The experiment in a line: TRPA1 FLIPR Tetra calcium influx assay in CHO cells (block of cinnamaldehyde-induced calcium influx). It is filed as cell-based. Particulars: CHO cells expressing TRPA1, agonist cinnamaldehyde 75 uM, read-out: hTRPA1 CHO Ca2+ AUC EVO (IC50). The procedure, abridged:
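CHO cells expressing TRPA1 were loaded with calcium dye in HBSS/20 mM HEPES, pH 7.4, 0.02% BSA, then given compound for 20 min at room temperature before ~EC80 cinnamaldehyde (75 µM human, 45 µM rat). Block of calcium influx was read on FLIPR Tetra; IC50 fitted with Hill coefficient fixed at 1.5.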

Where [1] appears, read: Table 2, 20 min compound incubation, Hill coefficient fixed to 1.5.
[2] abbreviates: Table 1, with vs without substituent at R2/R3.

T1 sequence (O75762 whole entry): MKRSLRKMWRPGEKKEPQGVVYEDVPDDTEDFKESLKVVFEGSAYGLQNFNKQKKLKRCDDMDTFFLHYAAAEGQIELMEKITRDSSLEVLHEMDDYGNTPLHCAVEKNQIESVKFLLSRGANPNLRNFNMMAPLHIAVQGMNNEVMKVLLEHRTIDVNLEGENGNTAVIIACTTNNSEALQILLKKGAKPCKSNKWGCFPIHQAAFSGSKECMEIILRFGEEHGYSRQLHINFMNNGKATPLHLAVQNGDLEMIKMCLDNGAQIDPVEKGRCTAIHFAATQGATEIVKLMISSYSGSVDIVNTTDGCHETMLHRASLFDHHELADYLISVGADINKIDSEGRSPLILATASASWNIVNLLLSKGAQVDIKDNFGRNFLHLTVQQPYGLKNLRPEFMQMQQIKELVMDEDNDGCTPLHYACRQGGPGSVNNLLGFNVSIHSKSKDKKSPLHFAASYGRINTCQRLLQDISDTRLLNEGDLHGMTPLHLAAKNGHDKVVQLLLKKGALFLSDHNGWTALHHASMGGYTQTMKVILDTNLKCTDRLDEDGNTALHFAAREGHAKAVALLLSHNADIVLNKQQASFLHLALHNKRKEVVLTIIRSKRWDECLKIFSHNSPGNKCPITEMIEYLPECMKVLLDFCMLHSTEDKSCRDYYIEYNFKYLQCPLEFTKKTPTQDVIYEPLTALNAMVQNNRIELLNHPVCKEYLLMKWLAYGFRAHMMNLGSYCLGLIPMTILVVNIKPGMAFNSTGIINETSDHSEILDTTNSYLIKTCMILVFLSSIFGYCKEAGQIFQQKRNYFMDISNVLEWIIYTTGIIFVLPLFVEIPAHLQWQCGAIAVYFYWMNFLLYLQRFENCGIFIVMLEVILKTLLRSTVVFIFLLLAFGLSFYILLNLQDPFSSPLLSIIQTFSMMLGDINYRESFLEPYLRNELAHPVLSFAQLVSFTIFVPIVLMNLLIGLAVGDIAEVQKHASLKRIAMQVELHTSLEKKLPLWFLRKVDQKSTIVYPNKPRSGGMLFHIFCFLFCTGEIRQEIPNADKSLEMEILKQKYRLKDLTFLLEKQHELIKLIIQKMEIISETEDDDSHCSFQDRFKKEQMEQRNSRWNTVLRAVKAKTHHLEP

What is called IC50 is the concentration needed to halve the response being measured. For the compound `O=C(NCc1cc(-c2cnc(C(F)(F)F)nc2)ncn1)[C@@H]1CC[C@H](C(F)(F)F)N1S(=O)(=O)c1ccc(F)cc1` [Example 9, (2S,5R)-1-(4-fluorophenyl)sulfonyl-5-(trifluoromethyl)-N-[[6-[2-(trifluoromethyl)pyrimidin-5-yl]pyrimidin-4-yl]methyl]pyrrolidine-2-carboxamide], the IC50 under setting [1] was 42.2 nM.

Regarding `C[C@H]1[C@H](F)C[C@@H](C(=O)NCc2cc(-c3cnc(C(F)(F)F)nc3)ncc2F)N1S(=O)(=O)c1ccc(Cl)c(Cl)c1` (stereo in doubt) [Example 92, (2S,4R,5S)-1-(3,4-dichlorophenyl)sulfonyl-4-fluoro-N-[[5-fluoro-2-[2-(trifluoromethyl)pyrimidin-5-yl]-4-pyridyl]methyl]-5-methyl-pyrrolidine-2-carboxamide], the IC50 under setting [1] amounted to 8.69 nM. The same measure, in the same setting: then `C[C@H]1[C@H](F)C[C@@H](C(=O)NCc2cc(OCC3(C(F)(F)F)CC3)nc(C3CC3)n2)N1S(=O)(=O)c1ccc(F)cc1` [Example 83, (2S,4R,5S)-N-[[2-cyclopropyl-6-[[1-(trifluoromethyl)cyclopropyl]methoxy]pyrimidin-4-yl]methyl]-4-fluoro-1-(4-fluorophenyl)sulfonyl-5-methyl-pyrrolidine-2-carboxamide], with 147 nM. As for `O=C(NCc1cc(-c2cnc(C(F)(F)F)nc2)ncc1F)[C@@H]1C[C@@H](F)CN1S(=O)(=O)c1ccc(F)cc1` [(2S,4R)-4-fluoro-1-(4-fluorophenyl)sulfonyl-N-[[5-fluoro-2-[2-(trifluoromethyl)pyrimidin-5-yl]-4-pyridyl]methyl]pyrrolidine-2-carboxamide, reference compound], under setting [2], the IC50 is 26.7 nM. On to `C[C@H]1[C@H](F)C[C@@H](C(=O)NCc2cc(OCCOC(F)(F)F)c(F)cn2)N1S(=O)(=O)c1ccc(F)cc1` [Example 82, (2S,4R,5S)-4-fluoro-1-(4-fluorophenyl)sulfonyl-N-[[5-fluoro-4-[2-(trifluoromethoxy)ethoxy]-2-pyridyl]methyl]-5-methyl-pyrrolidine-2-carboxamide], for which, under setting [1], the IC50 stood at 166 nM.

In the case of `C[C@H]1[C@H](F)C[C@@H](C(=O)NCc2cc(N3CC[C@H](OC(F)(F)F)C(F)(F)C3)ncc2F)N1S(=O)(=O)c1ccc(F)cc1` [Example 145, (2S,4R,5S)-N-[[2-[(4S)-3,3-difluoro-4-(trifluoromethoxy)-1-piperidyl]-5-fluoro-4-pyridyl]methyl]-4-fluoro-1-(4-fluorophenyl)sulfonyl-5-methyl-pyrrolidine-2-carboxamide], under setting [1], the IC50 came out at 8.36 nM.

On to `C[C@H]1[C@H](F)C[C@@H](C(=O)NCc2ccnc(-c3cnc(C(F)(F)F)nc3)c2)N1S(=O)(=O)c1ccc(F)cc1` [drawing 606, (2S,4R,5S)-4-fluoro-1-(4-fluorophenyl)sulfonyl-5-methyl-N-[[2-[2-(trifluoromethyl)pyrimidin-5-yl]-4-pyridyl]methyl]pyrrolidine-2-carboxamide], for which, under setting [2], the IC50 stood at 19.5 nM.

In the case of `C[C@H]1[C@H](F)C[C@@H](C(=O)NCc2cc(-c3cnc(C(F)(F)F)nc3)nc(C3CC3)c2C(F)(F)F)N1S(=O)(=O)c1ccc(F)cc1` [Example 137, (2S,4R,5S)-N-[[2-cyclopropyl-3-(trifluoromethyl)-6-[2-(trifluoromethyl)pyrimidin-5-yl]-4-pyridyl]methyl]-4-fluoro-1-(4-fluorophenyl)sulfonyl-5-methyl-pyrrolidine-2-carboxamide], under setting [1], the half-maximal inhibitory concentration (IC50) stood at 0.7 nM. In the case of `C[C@H]1[C@H](F)C[C@@H](C(=O)NCc2cc(-c3cnc(C(F)(F)F)nc3)cc(C3CC3)n2)N1S(=O)(=O)c1ccc(F)cc1` [Example 130, (2S,4R,5S)-N-[[6-cyclopropyl-4-[2-(trifluoromethyl)pyrimidin-5-yl]-2-pyridyl]methyl]-4-fluoro-1-(4-fluorophenyl)sulfonyl-5-methyl-pyrrolidine-2-carboxamide], the IC50 under setting [1] was 3.82 nM.

Regarding `C[C@H]1[C@H](F)C[C@@H](C(=O)NCc2cc(-c3cnc(C(F)(F)F)nc3)c(OC(F)(F)F)cn2)N1S(=O)(=O)c1ccc(F)cc1` [Example 106, (2S,4R,5S)-4-fluoro-1-(4-fluorophenyl)sulfonyl-5-methyl-N-[[5-(trifluoromethoxy)-4-[2-(trifluoromethyl)pyrimidin-5-yl]-2-pyridyl]methyl]pyrrolidine-2-carboxamide], the IC50 under setting [1] turned out to be 2.2 nM.

As to `O=C(NCc1cc(-c2cnc(C(F)(F)F)nc2)ncn1)[C@@H]1CC[C@H](C2CC2)N1S(=O)(=O)c1ccc(F)cc1` [Example 21, (2S,5R)-5-cyclopropyl-1-(4-fluorophenyl)sulfonyl-N-[[6-[2-(trifluoromethyl)pyrimidin-5-yl]pyrimidin-4-yl]methyl]pyrrolidine-2-carboxamide], the IC50 under setting [1] was 71.3 nM. Still for that read-out and setting: the result for `C[C@H]1[C@H](F)C[C@@H](C(=O)NCc2cc(-c3cnc(C(F)(F)F)nc3)nc(C(F)(F)F)c2)N1S(=O)(=O)c1ccc(F)cc1` [Example 113, (2S,4R,5S)-4-fluoro-1-(4-fluorophenyl)sulfonyl-5-methyl-N-[[2-(trifluoromethyl)-6-[2-(trifluoromethyl)pyrimidin-5-yl]-4-pyridyl]methyl]pyrrolidine-2-carboxamide] reads 4.47 nM. The same measure, in the same setting: the result for `COc1cnc(CNC(=O)[C@@H]2C[C@@H](F)[C@H](C)N2S(=O)(=O)c2ccc(F)cc2)cc1-c1cnc(C(F)(F)F)nc1` [Example 35, (2S,4R,5S)-4-fluoro-1-[(4-fluorobenzene)sulfonyl]-N-([5-methoxy-4-[2-(trifluoromethyl)pyrimidin-5-yl]pyridin-2-yl]methyl)-5-methylpyrrolidine-2-carboxamide] reads 53.1 nM. The same measure, in the same setting: the result for `C[C@H]1[C@H](F)C[C@@H](C(=O)NCc2cc(-c3cnc(C(F)(F)F)nc3)ncc2Cl)N1S(=O)(=O)c1ccc(F)cc1` [Example 12, (2S,4R,5S)-N-[[5-chloro-2-[2-(trifluoromethyl)pyrimidin-5-yl]-4-pyridyl]methyl]-4-fluoro-1-(4-fluorophenyl)sulfonyl-5-methyl-pyrrolidine-2-carboxamide] reads 2.94 nM; that for `C[C@H]1[C@H](F)C[C@@H](C(=O)NCc2cc(C3CCN(CC(F)(F)F)CC3)ncc2F)N1S(=O)(=O)c1ccc(F)cc1` [Example 88, (2S,4R,5S)-4-fluoro-1-(4-fluorophenyl)sulfonyl-N-[[5-fluoro-2-[1-(2,2,2-trifluoroethyl)-4-piperidyl]-4-pyridyl]methyl]-5-methyl-pyrrolidine-2-carboxamide], 42.3 nM; that for `O=C(NCc1ccc(F)c(-c2cnc(C(F)(F)F)nc2)c1)[C@H]1[C@@H]2C[C@@H]2CN1S(=O)(=O)c1ccc(F)cc1` (stereo in doubt) [Example 70, (1S,4R,5R)-3-(4-fluorophenyl)sulfonyl-N-[[4-fluoro-3-[2-(trifluoromethyl)pyrimidin-5-yl]phenyl]methyl]-3-azabicyclo[3.1.0]hexane-4-carboxamide], 11.3 nM. In the case of `C[C@H]1[C@H](F)C[C@@H](C(=O)NCc2cc(OCCC3(C(F)(F)F)CC3)nc(C3CC3)n2)N1S(=O)(=O)c1ccc(F)cc1` [Example 143, (2S,4R,5S)-N-[[2-cyclopropyl-6-[2-[1-(trifluoromethyl)cyclopropyl]ethoxy]pyrimidin-4-yl]methyl]-4-fluoro-1-(4-fluorophenyl)sulfonyl-5-methyl-pyrrolidine-2-carboxamide], the IC50 under setting [1] stood at 22.4 nM. Still for that read-out and setting: then `O=C(NCc1cc(-c2cnc(C(F)(F)F)nc2)ncc1C(F)(F)F)[C@@H]1[C@H]2C[C@H]2CN1S(=O)(=O)c1ccc(F)cc1` [Example 149, (1S,2S,5R)-3-(4-fluorophenyl)sulfonyl-N-[[5-(trifluoromethyl)-2-[2-(trifluoromethyl)pyrimidin-5-yl]-4-pyridyl]methyl]-3-azabicyclo[3.1.0]hexane-2-carboxamide], with 0.756 nM; and `C[C@H]1[C@H](F)C[C@@H](C(=O)NCc2cc(F)cc(-c3cnc(C(F)(F)F)cn3)c2)N1S(=O)(=O)c1ccc(F)cc1` [Example 45, (2S,4R,5S)-4-fluoro-N-(3-fluoro-5-(5-(trifluoromethyl)pyrazin-2-yl)benzyl)-1-(4-fluorophenylsulfonyl)-5-methylpyrrolidine-2-carboxamide], with 8.05 nM.
